In ChEMBL document CHEMBL1133958, “Derivatives of (2R,3R,4S)-2-aminomethylpyrrolidine-3,4-diol are selective alpha-mannosidase inhibitors” (Bioorg Med Chem Lett, 2001):
The source made the active and inactive calls. The rule behind the calls is not given here.

Tests used:
Saccharomyces cerevisiae [1] = assay: Percentage inhibition of Alpha-glucosidase from Yeast (maltase) at 1 mM
[2] = target: Glucoamylase (Aspergillus niger) (UniProt P69328); assay: Percentage inhibition of Alpha-glucosidase from Aspergillus niger (amyloglucosidase) at 1 mM; No inhibition
[3] = target: Beta-glucosidase A (Caldicellulosiruptor saccharolyticus) (UniProt P10482); assay: Percentage inhibition of Beta-Glucosidase from Caldocellum saccharol. at 1 mM
[4] = target: T1, Glucoamylase 1 (Rhizopus oryzae) (UniProt P07683); assay: Percentage inhibition of Alpha-glucosidase from Rhizopus mold (amyloglucosidase) at 1 mM concentration; No inhibition; conditions: Rhizopus arrhizus
T1 sequence (whole entry): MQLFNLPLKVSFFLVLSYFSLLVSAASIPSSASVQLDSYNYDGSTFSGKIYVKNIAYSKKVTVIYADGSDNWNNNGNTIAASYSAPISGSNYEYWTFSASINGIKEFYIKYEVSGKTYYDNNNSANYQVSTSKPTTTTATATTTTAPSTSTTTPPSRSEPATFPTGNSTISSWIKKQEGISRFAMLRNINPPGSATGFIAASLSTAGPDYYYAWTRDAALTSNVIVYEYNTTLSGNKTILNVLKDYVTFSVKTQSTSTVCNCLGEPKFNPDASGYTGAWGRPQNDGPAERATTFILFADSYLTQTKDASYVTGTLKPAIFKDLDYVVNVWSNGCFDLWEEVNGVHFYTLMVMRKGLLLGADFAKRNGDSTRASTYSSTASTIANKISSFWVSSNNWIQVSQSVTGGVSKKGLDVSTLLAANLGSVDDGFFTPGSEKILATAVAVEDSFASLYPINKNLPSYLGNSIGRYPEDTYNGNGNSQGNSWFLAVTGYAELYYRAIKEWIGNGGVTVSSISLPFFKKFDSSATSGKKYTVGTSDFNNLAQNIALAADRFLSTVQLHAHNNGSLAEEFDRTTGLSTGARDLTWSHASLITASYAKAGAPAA

[5] = target: T2, Alpha-glucosidase (Oryza sativa Japonica Group) (UniProt Q9LGC6); assay: Percentage inhibition of Alpha-glucosidase from Rice (maltase) at 1 mM
T2 sequence (whole entry): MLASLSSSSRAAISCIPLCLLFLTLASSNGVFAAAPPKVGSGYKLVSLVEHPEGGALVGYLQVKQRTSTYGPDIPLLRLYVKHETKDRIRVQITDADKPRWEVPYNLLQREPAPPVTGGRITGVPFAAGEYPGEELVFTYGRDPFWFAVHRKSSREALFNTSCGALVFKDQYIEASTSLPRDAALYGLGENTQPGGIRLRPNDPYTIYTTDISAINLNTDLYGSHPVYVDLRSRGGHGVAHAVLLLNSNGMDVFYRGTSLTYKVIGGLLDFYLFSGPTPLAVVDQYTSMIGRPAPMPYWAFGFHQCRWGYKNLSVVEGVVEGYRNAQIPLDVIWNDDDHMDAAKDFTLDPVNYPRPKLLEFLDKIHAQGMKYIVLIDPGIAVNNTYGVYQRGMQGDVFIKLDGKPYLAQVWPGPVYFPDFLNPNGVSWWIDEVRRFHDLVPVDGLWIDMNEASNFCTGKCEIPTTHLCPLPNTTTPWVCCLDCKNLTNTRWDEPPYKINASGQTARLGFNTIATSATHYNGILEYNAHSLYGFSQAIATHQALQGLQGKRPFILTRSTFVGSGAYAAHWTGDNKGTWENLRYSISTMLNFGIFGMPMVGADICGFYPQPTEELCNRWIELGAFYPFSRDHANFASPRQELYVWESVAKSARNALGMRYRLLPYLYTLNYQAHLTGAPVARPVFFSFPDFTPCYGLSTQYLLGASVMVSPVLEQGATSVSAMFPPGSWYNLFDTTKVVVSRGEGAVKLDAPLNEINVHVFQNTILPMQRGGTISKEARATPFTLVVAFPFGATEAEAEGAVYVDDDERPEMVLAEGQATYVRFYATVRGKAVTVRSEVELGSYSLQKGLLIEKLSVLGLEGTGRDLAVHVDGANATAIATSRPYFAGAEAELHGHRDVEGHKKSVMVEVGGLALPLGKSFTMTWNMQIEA

[6] = target: Beta-galactosidase (Escherichia coli K-12) (UniProt P00722); assay: Percentage inhibition of Beta-galactosidase from Escherichia coli at 1 mM concentration
[7] = Percentage inhibition of Beta-galactosidase from Aspergillus oryzae at 1 mM
[8] = target: T3, Beta-galactosidase (Bos taurus) (UniProt Q58D55); assay: Percentage inhibition of Beta-galactosidase from Bovine liver at 1 mM; No inhibition
T3 sequence (whole entry): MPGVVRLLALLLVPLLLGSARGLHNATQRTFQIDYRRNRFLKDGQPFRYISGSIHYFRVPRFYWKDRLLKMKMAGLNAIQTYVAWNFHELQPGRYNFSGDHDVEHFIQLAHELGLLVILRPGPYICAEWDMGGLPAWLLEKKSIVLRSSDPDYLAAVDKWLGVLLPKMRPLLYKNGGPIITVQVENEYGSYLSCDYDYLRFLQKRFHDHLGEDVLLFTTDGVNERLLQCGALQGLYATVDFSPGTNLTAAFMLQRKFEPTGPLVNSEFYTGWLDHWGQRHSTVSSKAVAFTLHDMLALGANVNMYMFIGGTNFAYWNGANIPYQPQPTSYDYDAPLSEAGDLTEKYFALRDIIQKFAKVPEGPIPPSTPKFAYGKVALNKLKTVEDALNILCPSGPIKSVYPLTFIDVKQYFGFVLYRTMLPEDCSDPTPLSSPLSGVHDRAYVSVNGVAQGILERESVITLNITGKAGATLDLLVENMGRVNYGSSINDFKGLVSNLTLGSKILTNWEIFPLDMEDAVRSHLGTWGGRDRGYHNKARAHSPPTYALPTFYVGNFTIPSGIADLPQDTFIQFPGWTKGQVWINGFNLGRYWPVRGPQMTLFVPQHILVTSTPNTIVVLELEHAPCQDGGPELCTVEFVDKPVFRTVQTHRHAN

[9] = target: T4, Beta-galactosidase (Aspergillus niger) (UniProt P29853); assay: Percentage inhibition of Beta-galactosidase from Aspergillus niger at 1 mM concentration
T4 sequence (whole entry): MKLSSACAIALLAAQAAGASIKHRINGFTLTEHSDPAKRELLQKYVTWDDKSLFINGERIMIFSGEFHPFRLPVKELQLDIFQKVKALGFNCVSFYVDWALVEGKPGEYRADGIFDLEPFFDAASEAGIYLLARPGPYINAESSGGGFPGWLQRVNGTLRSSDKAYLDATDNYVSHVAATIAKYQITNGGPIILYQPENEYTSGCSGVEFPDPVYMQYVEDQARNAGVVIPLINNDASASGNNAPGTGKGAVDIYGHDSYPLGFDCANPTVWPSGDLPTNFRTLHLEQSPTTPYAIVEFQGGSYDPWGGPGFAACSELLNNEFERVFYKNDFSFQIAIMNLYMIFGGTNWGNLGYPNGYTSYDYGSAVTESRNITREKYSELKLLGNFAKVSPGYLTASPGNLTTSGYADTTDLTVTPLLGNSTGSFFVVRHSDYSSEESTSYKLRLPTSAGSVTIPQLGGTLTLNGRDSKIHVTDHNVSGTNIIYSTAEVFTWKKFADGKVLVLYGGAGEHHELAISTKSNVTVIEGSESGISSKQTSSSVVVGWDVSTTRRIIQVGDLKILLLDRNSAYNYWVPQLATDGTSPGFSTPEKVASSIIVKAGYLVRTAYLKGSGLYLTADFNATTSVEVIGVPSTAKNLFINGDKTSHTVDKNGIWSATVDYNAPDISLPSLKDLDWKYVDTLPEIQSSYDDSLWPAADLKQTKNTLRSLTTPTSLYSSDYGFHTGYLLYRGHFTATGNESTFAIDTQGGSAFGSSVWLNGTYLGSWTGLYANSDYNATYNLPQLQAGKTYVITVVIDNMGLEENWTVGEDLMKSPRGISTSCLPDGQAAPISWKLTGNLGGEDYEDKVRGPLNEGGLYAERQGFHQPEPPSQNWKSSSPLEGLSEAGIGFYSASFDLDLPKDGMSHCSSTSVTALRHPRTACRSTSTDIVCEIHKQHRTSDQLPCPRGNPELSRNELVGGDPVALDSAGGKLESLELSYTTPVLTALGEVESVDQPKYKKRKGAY

[10] = system: Alpha-mannosidase (Prunus dulcis); assay: Percentage inhibition of Alpha-mannosidase from Almond at 1 mM
[11] = Percentage inhibition of Beta-galactosidase from Jack bean at 1 mM concentration; conditions: Canavalia ensiformis
[12] = target: T2, Alpha-glucosidase (Oryza sativa Japonica Group); assay: Percentage inhibition of Alpha-glucosidase from Rice (maltase) at 1 mM; […]
Saccharomyces cerevisiae [13] = assay: Percentage inhibition of Alpha-glucosidase from Baker yeast (isomaltase) at 1 mM
Beta-glucosidase A = Beta-glucosidase A (Caldicellulosiruptor saccharolyticus, UniProt P10482); assay: Inhibitory activity towards Beta-Glucosidase from Caldocellum saccharol.
[14] = Percentage inhibition of Beta-galactosidase from Aspergillus oryzae at 1 mM; No inhibition
Beta-galactosidase [15] = target: T5, Beta-galactosidase (Bos taurus, UniProt Q58D55); assay: Inhibitory activity towards Beta-galactosidase from Bovine liver
T5 sequence (Q58D55 whole entry): T3 sequence (whole entry)

[16] = target: T3, Beta-galactosidase (Bos taurus); assay: Percentage inhibition of Beta-galactosidase from Bovine liver at 1 mM concentration
Saccharomyces cerevisiae [17] = assay: Percentage inhibition of Alpha-glucosidase from Yeast (maltase) at 1 mM; […]
[18] = target: Glucoamylase (Aspergillus niger) (UniProt P69328); assay: Percentage inhibition of Alpha-glucosidase from Aspergillus niger (amyloglucosidase) at 1 mM
[19] = target: T1, Glucoamylase 1 (Rhizopus oryzae); assay: Percentage inhibition of Alpha-glucosidase from Rhizopus mold (amyloglucosidase) at 1 mM concentration; conditions: Rhizopus arrhizus
Beta-galactosidase [20] = target: T6, Beta-galactosidase (Aspergillus niger, UniProt P29853); assay: Inhibitory activity towards Beta-galactosidase from Aspergillus niger
T6 sequence (P29853 whole entry): T4 sequence (whole entry)

[21] = Inhibitory activity towards Beta-galactosidase from Aspergillus oryzae
[22] = target: Beta-glucosidase A (Caldicellulosiruptor saccharolyticus) (UniProt P10482); assay: Percentage inhibition of Beta-Glucosidase from Caldocellum saccharol. at 1 mM; No inhibition

Beta-galactosidase (Escherichia coli K-12), sequence (P00722 whole entry): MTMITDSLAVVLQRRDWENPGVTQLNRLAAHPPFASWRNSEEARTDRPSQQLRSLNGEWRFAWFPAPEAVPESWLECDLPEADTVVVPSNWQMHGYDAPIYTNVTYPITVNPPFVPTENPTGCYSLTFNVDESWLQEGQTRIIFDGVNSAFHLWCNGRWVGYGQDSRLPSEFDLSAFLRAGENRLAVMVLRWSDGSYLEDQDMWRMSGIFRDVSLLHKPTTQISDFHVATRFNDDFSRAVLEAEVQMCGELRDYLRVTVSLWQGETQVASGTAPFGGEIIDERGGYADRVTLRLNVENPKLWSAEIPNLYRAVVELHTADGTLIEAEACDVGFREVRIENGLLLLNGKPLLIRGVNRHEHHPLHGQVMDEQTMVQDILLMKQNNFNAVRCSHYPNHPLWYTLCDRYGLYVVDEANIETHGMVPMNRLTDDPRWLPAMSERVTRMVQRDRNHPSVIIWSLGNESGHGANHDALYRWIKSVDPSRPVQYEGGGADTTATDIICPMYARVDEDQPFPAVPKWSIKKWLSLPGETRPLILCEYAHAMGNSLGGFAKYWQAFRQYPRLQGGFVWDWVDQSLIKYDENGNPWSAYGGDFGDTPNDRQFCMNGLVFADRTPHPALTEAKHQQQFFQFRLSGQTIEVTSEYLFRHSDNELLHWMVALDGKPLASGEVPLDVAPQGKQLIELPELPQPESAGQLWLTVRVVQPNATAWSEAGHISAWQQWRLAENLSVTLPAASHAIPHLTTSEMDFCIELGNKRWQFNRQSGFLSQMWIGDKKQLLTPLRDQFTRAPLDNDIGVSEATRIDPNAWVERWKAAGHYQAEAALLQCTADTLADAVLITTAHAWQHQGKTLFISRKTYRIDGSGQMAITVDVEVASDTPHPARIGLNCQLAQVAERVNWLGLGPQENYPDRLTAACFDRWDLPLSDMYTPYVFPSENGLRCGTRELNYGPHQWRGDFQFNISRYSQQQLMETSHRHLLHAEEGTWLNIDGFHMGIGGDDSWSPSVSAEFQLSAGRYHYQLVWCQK
Glucoamylase (Aspergillus niger), sequence (P69328 whole entry): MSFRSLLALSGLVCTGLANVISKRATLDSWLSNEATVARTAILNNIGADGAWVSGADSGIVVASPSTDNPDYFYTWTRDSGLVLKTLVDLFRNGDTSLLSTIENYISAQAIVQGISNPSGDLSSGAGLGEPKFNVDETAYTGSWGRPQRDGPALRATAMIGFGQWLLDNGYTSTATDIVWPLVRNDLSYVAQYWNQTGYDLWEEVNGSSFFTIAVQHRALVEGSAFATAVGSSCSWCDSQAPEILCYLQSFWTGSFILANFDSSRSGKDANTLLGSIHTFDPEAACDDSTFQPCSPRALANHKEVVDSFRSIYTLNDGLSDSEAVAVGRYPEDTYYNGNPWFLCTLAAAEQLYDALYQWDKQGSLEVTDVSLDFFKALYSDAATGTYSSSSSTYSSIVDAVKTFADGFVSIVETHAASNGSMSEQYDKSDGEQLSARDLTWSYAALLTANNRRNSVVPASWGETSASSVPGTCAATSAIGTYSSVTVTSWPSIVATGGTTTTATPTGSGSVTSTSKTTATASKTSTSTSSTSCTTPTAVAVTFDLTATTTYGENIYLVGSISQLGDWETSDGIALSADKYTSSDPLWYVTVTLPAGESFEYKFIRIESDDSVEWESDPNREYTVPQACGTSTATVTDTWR
Beta-glucosidase A (Caldicellulosiruptor saccharolyticus), sequence (P10482 whole entry): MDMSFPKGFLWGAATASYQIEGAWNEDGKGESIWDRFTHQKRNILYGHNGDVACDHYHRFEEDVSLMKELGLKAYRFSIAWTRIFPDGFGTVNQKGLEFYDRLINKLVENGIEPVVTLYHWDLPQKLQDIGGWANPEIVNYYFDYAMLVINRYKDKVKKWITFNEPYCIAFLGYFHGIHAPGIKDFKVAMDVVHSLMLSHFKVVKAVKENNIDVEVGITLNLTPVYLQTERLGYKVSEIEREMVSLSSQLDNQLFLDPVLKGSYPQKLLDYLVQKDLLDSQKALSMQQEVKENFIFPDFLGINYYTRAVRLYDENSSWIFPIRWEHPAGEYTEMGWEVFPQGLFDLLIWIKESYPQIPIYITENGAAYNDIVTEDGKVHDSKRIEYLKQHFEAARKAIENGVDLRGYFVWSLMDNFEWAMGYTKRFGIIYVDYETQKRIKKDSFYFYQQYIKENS
Beta-glucosidase A, sequence (P10482 whole entry): as above

inhibition (Saccharomyces cerevisiae [1])	inhibition [2]	inhibition [3]	inhibition [4]	inhibition [6]	inhibition [7]	inhibition [9]	inhibition [10]	inhibition [12]	inhibition (Saccharomyces cerevisiae [13])	inhibition [16]	inhibition (Saccharomyces cerevisiae [17])	inhibition [18]	inhibition [19]	IC50 [21]	SMILES	further results
84%	inactive	93%	inactive	92%	60%	24%	51%								NCC1NCC(O)C1O (stereo not given)	inhibition [5]: 98%; inhibition [8]: inactive; inhibition [11]: 76%
28%	inactive	72%	inactive	25%		29%	48%	inactive	46%	84%					CC(NCC1NCC(O)C1O)C(O)(c1ccccc1)c1ccccc1 (stereo not given)	IC50 (Beta-glucosidase A): 320 µM; inhibition [14]: inactive; IC50 (Beta-galactosidase [15]): 140 µM; Ki (Beta-galactosidase [15]): 21 µM
		90%		48%	80%	91%		inactive	28%	32%	inactive	21%	40%	75 µM	OC(O)CC1NCC(O)C1O (stereo not given)	IC50 (Beta-galactosidase [20]): 140 µM; Ki (Beta-galactosidase [20]): 200 µM; Ki [21]: 75 µM
				41%	53%	39%		inactive	32%	25%	inactive	24%	47%	790 µM	O[C@@H]1CNC[C@@H]1O	inhibition [22]: inactive
